Measured values from patent publication US11858958B2, “Blank liposome with ginsenoside Rg3 or its analog as membrane materials and preparations and uses thereof” (Shanghai Ginsome Pharmatech Co., Ltd., priority 2018, dated 2024).
“And” between values parts separate entries of the source, which are not always exact repeats. Equal entries are not always repeated.

Tests used:
[1] = tested on: human breast cancer cell line (4T1); test: In vitro cytotoxicity studies (DTX groups); format: cell-based
Protocol: For each concentration group, 4 replicates were set up. The whole experiment was independently repeated 3 times.
The in vitro cytotoxicity was evaluated using human breast cancer cell line (4T1).

[2] = tested on: human gastric cancer cell (BGC-823); test: In vivo pharmacological efficacy assay, relative tumor volume; design: species or system nude mice
Protocol: 2. In vivo pharmacological efficacy assay: A total of 72 subcutaneous tumor-bearing nude mice were randomerized into 8 groups (9 in each group), and intravenously injected with PBS solution (Control group,), Rg3, Rg3-blank, PTX-Cho-Lipo, Abraxane, PTX-Rg5-Gipo, PTX-Rg3-Gipo and PTX-Rh2-Gipo, via tail vein at a dose of 10 mg·kg^1. The changes of mice body weights in each group were recorded every 2 days, and the longest diameter and the shortest diameter of tumors were measured with vernier calipers. The tumor volume is calculated by the following formula: V=(dmax×dmin^2)/2, wherein dmin and dmax are respectively the shortest diameter and the longest diameter (mm) of the tumor; a relative tumor volume (RTV) is calculated according to the measurement results by the formula: RTV=TVn/TV0,
wherein TVn is the volume of the tumor measured every 2 days, TV0 is the volume of the tumor measured at day zero (the administration day).

rat C6 glioma cells = test: In vitro drug efficiency assay, survival rate of glioma cells; format: cell-based
[3] = tested on: in-situ glioma model (C6 cells); test: Survival curve and median survival day; format: in vivo, nude mice
[4] = in words; cited from earlier work
[5] = tested on: human breast cancer cell line (4T1); test: In vitro drug efficacy assay, cell survival rate (Rh2/PTX groups)
Protocol: Logarithmically growing tumor cells were collected and resuspended in DMEM complete medium supplemented with 10% fetal bovine serum, 100 U/ml penicillin and 100 μg/ml streptomycin to a final cell density of 4×10^4 cells/ml. Then, 200 μl cell suspension solution was seeded into each well of a 96-well plate (with a concentration of 8×10^3 cells/well) and the plate was cultured in a CO2 cell culture incubator at 37° C. […] The group without replacing DMEM complete medium by anti-cancer drug solution was used as negative control. For each concentration group, 4 replicates were set up. The whole experiment was independently repeated 3 times. The cells were continuously cultured in a CO2 cell culture incubator at 37° C. […] Then discarded the supernatant, added 150 μl DMSO into each well, and shaked the plate for 10 min. The absorbance was measured at 490 nm using a microplate reader (Tecan infinite M 200 TECAN, Switzerland). The cell survival rate is calculated according to the following formula:

[6] = tested on: human breast cancer cell 4T1; test: In vivo drug efficacy assay, relative tumor volume (Rh2/PTX groups); design: species or system nude mice; details: 4T1, tail vein 30 mg/kg
Protocol: To evaluate the drug efficacy in vivo, 45 subcutaneous tumor-bearing nude mice were randomized into 5 treatment groups (9 in each group) and intravenously injected with PBS solution (control group), ginsenoside Rh2 (Rh2 group), ginsenoside Rh2 blank liposome (Rh2-Blank group), conventional paclitaxel cholesterol liposome (PTX-Cho-Lipo group) and ginsenoside Rh2 paclitaxel liposome (PTX-Rh2-Gipo group) via tail vein at a dose of 30 mg/kg. The changes of body weights of mice in each group were recorded every 2 days, and the longest diameter and the shortest diameter of tumors were measured with vernier calipers. The tumor volume was calculated by the following formula: V=(dmax×dmin^2)/2, wherein dmin and dmax are respectively the shortest diameter and the longest diameter (mm) of the tumor; a relative tumor volume (RTV) was calculated according to the measurement results, by the formula: RTV=TVn/TV0, […], TV0 is the volume of the tumor measured at day zero (the administration day).

## CC(=O)O[C@@]12CO[C@@H]1C[C@H](O)[C@@]1(C)C(=O)[C@H](O)C3=C(C)[C@@H](OC(=O)[C@H](O)[C@@H](NC(=O)OC(C)(C)C)c4ccccc4)C[C@@](O)([C@@H](OC(=O)c4ccccc4)[C@H]21)C3(C)C [DTX, docetaxel]
[1]; 4T1, Concentration 3.84E−05 μg/ml
  Cell viability(%): 83.55%
[1]; 4T1, Concentration 7.68E−06 μg/ml
  Cell viability(%): 86.66%
[1]; Homo sapiens, 4T1, Concentration 0.00019 μg/ml
  viability at 0.00019 µg/mL: 72.5%
[1]; Homo sapiens, 4T1, Concentration 0.00096 μg/ml
  viability at 0.00096 µg/mL: 61.6%
[1]; Homo sapiens, 4T1, Concentration 0.0048 μg/ml
  viability at 0.0048 µg/mL: 50.9%
[1]; Homo sapiens, 4T1, Concentration 0.024 μg/ml
  viability at 0.024 µg/mL: 49.9%
[1]; Homo sapiens, 4T1, Concentration 0.12 μg/ml
  viability at 0.12 µg/mL: 46.3%
[1]; Homo sapiens, 4T1, Concentration 0.6 μg/ml
  viability at 0.6 µg/mL: 48.9%
[1]; Homo sapiens, 4T1, Concentration 3 μg/ml
  viability at 3 µg/mL: 51.9%

## CC(C)=CCC[C@](C)(O)[C@H]1CC[C@]2(C)[C@@H]1[C@H](O)C[C@@H]1[C@@]3(C)CC[C@H](O[C@@H]4O[C@H](CO)[C@@H](O)[C@H](O)[C@H]4O[C@@H]4O[C@H](CO)[C@@H](O)[C@H](O)[C@H]4O)C(C)(C)[C@@H]3CC[C@]12C [Rg3, Ginsenoside 20(S)-Rg3]
[2]; BGC-823, tail vein 10 mg·kg^1, time 1 d
  Relative tumor volume: 166.88
[2]; BGC-823, tail vein 10 mg·kg^1, time 3 d
  Relative tumor volume: 267.38
[2]; BGC-823, tail vein 10 mg·kg^1, time 5 d
  Relative tumor volume: 317.96
[2]; BGC-823, tail vein 10 mg·kg^1, time 7 d
  Relative tumor volume: 417.96
[2]; BGC-823, tail vein 10 mg·kg^1, time 9 d
  Relative tumor volume: 717.96
[2]; BGC-823, tail vein 10 mg·kg^1, time 11 d
  Relative tumor volume: 1340.69
[2]; BGC-823, tail vein 10 mg·kg^1, time 13 d
  Relative tumor volume: 1636.89
[2]; BGC-823, tail vein 10 mg·kg^1, time 15 d
  Relative tumor volume: 2034.43
[2]; BGC-823, tail vein 10 mg·kg^1, time 17 d
  Relative tumor volume: 2034.43
[2]; BGC-823, tail vein 10 mg·kg^1, time 19 d
  Relative tumor volume: 2034.43
[2]; BGC-823, tail vein 10 mg·kg^1, time 21 d
  Relative tumor volume: 2034.43
[2]; BGC-823, tail vein 10 mg·kg^1, time 23 d
  Relative tumor volume: 2034.43
Rat C6 glioma cells; C6, C 0.001 μg/ml (Table 10)
  Cell Viability: 100
Rat C6 glioma cells; C6, C 0.003 μg/ml (Table 10)
  Cell Viability: 98.82
Rat C6 glioma cells; C6, C 0.01 μg/ml (Table 10)
  Cell Viability: 92.42
Rat C6 glioma cells; C6, C 0.03 μg/ml (Table 10)
  Cell Viability: 92.03
Rat C6 glioma cells; C6, C 0.08 μg/ml (Table 10)
  Cell Viability: 94.23
Rat C6 glioma cells; C6, C 0.25 μg/ml (Table 10)
  Cell Viability: 95.43
Rat C6 glioma cells; C6, C 0.74 μg/ml (Table 10)
  Cell Viability: 92.822
Rat C6 glioma cells; C6, C 2.22 μg/ml (Table 10)
  Cell Viability: 96.16
Rat C6 glioma cells; C6, C 6.67 μg/ml (Table 10)
  Cell Viability: 95.02
Rat C6 glioma cells; C6, C 20 μg/ml (Table 10)
  Cell Viability: 89.02
[3]; tail vein 10 mg·kg^−1
  Median survial: 29 days and 32 days
[3]; tail vein 10 mg·kg^−1, Time 12 d
  number of survived mice: 10
[3]; tail vein 10 mg·kg^−1, Time 14 d
  number of survived mice: 10
[3]; tail vein 10 mg·kg^−1, Time 16 d
  number of survived mice: 9
[3]; tail vein 10 mg·kg^−1, Time 18 d
  number of survived mice: 9
[3]; tail vein 10 mg·kg^−1, Time 20 d
  number of survived mice: 8
[3]; tail vein 10 mg·kg^−1, Time 22 d
  number of survived mice: 7
[3]; tail vein 10 mg·kg^−1, Time 24 d
  number of survived mice: 7
[3]; tail vein 10 mg·kg^−1, Time 26 d
  number of survived mice: 6
[3]; tail vein 10 mg·kg^−1, Time 28 d
  number of survived mice: 5
[3]; tail vein 10 mg·kg^−1, Time 30 d
  number of survived mice: 4
[3]; tail vein 10 mg·kg^−1, Time 32 d
  number of survived mice: 4
[3]; tail vein 10 mg·kg^−1, Time 34 d
  number of survived mice: 3
[3]; tail vein 10 mg·kg^−1, Time 36 d
  number of survived mice: 3
[3]; tail vein 10 mg·kg^−1, Time 38 d
  number of survived mice: 2
[3]; tail vein 10 mg·kg^−1, Time 40 d
  number of survived mice: 1
[3]; tail vein 10 mg·kg^−1, Time 42 d
  number of survived mice: 0
[3]; tail vein 10 mg·kg^−1, Time 44 d
  number of survived mice: 0
[3]; tail vein 10 mg·kg^−1, Time 46 d
  number of survived mice: 0
[3]; tail vein 10 mg·kg^−1, Time 48 d
  number of survived mice: 0
[3]; tail vein 10 mg·kg^−1, Time 50 d
  number of survived mice: 0
[3]; tail vein 10 mg·kg^−1, Time 52 d
  number of survived mice: 0
[3]; tail vein 10 mg·kg^−1, Time 54 d
  number of survived mice: 0
[3]; tail vein 10 mg·kg^−1, Time 56 d
  number of survived mice: 0
[3]; tail vein 10 mg·kg^−1, Time 58 d
  number of survived mice: 0
[3]; tail vein 10 mg·kg^−1, Time 60 d
  number of survived mice: 0
[3]; tail vein 10 mg·kg^−1, Time 62 d
  number of survived mice: 0
[4]
  solubility in diethyl ether and chloroform: insoluble in diethyl ether and chloroform
  solubility in methanol and ethanol: soluble in methanol and ethanol
  solubility in water: poorly soluble in water

## CC(C)=CCC[C@](C)(O)[C@H]1CC[C@]2(C)[C@@H]1[C@H](O)C[C@@H]1[C@@]3(C)CC[C@H](O[C@@H]4O[C@H](CO)[C@@H](O)[C@H](O)[C@H]4O)C(C)(C)[C@@H]3CC[C@]12C [Rh2, ginsenoside Rh2]
[5]; 4T1, C 0.00366 μM
  Cell Viability: 104.04
[5]; 4T1, C 0.01097 μM
  Cell Viability: 92.85
[5]; 4T1, C 0.03292 μM
  Cell Viability: 94.47
[5]; 4T1, C 0.09877 μM
  Cell Viability: 99.90
[5]; 4T1, C 0.29630 μM
  Cell Viability: 98.07
[5]; 4T1, C 0.88889 μM
  Cell Viability: 96.04
[5]; 4T1, C 2.66667 μM
  Cell Viability: 104.25
[5]; 4T1, C 8.00000 μM
  Cell Viability: 100.73
[5]; in words
  activity in vitro against human breast cancer cells (4T1): low activity
[6]; time 0 d
  Relative tumor volume: 100.00
[6]; time 3 d
  Relative tumor volume: 200.94
[6]; time 6 d
  Relative tumor volume: 316.69
[6]; time 9 d
  Relative tumor volume: 276.04
[6]; time 12 d
  Relative tumor volume: 400.20
[6]; time 15 d
  Relative tumor volume: 473.53
[6]; time 18 d
  Relative tumor volume: 510.20
[6]; time 21 d
  Relative tumor volume: 898.52
[4]
  solubility in diethyl ether and chloroform: insoluble in diethyl ether and chloroform
  solubility in methanol and ethanol: soluble in methanol and ethanol
  solubility in water: poorly soluble in water
